What was measured:
[1] = Test 4: dissolution test (Japanese Pharmacopoeia Method 2) in second fluid; type: physicochemical; details: second fluid of the Japanese Pharmacopoeia; dissolved cefditoren pivoxil determined at 272 nm
Description: For each sample shown in Table 2, a dissolution test (see The Japanese Pharmacopoeia, Fourteenth Edition, Part I, General Tests “56. Dissolution test, Method 2”) was carried out in a second fluid specified in the Japanese Pharmacopoeia (a fluid prepared by adding 118 mL of a 0.2 mol/L sodium hydroxide reagent solution and water to 250 mL of a 0.2 mol/L potassium dihydogenphosphate reagent solution; the amount of the water being a sufficient amount to bring the total volume of the fluid to 1,000 mL). The fluid with the sample dissolved therein was sampled at fixed intervals of time and was filtered through a glass filter G-4 manufactured by TOYAMA SANGYO Co., Ltd., and the amount of dissolved cefditoren pivoxil was then quantitatively determined at a measuring wavelength of 272 nm with a spectrophotometer (UV-160, manufactured by Shimadzu Seisakusho Ltd.

[2] = Test 2: thermal analysis, stability against heat by differential scanning calorimeter; type: physicochemical; details: temperature rise rate 10° C./min
From the text: The samples shown in Table 2 were examined for stability against heat with a differential scanning calorimeter (model DSC 3100, manufactured by MAC Science).

Row | SMILES | dissolvability (dissolution curve of cefditoren pivoxil) [1] | exothermic peak in DSC curve (transfer to a crystalline state) [2]
1 | CO/N=C(\C(=O)N[C@@H]1C(=O)N2C(C(=O)OCOC(=O)C(C)(C)C)=C(/C=C\c3scnc3C)CS[C@H]12)c1csc(N)n1 [crystalline cefditoren pivoxil, (−)-(6R,7R)-7-[(Z)-2-(2-aminothiazol-4-yl)-2-methoxyiminoacetamido]-3-[(Z)-2-(4-methylthiazol-5-yl)ethenyl]-8-oxo-5-thia-1-azabicyclo[4.2.0]oct-2-ene-2-carboxylic acid 2,2-dimethylpropionyloxymethyl ester] | substantially no difference in dissolvability | 
2 | CO/N=C(\C(=O)N[C@@H]1C(=O)N2C(C(=O)OCOC(=O)C(C)(C)C)=C(/C=C\c3scnc3C)CS[C@H]12)c1csc(N)n1 [amorphous cefditoren pivoxil, (−)-(6R,7R)-7-[(Z)-2-(2-aminothiazol-4-yl)-2-methoxyiminoacetamido]-3-[(Z)-2-(4-methylthiazol-5-yl)ethenyl]-8-oxo-5-thia-1-azabicyclo[4.2.0]oct-2-ene-2-carboxylic acid 2,2-dimethylpropionyloxymethyl ester] |  | around 140 °C
